In US11376224B2, “System for delivery of FK506 for enhancing nerve regeneration” (THE HOSPITAL FOR SICK CHILDREN, priority 2016, dated 2022):

Test: FK506 tissue concentrations (organ exposure) by mass spectrometry after drug delivery system implantation
Assay type: in vivo, Sprague-Dawley rats
Method: FK506 was detectable within the proximal injured sciatic nerve, DRGs (L4, L5), the entire spinal cord, and the muscles surrounding the nerve repair site, decreasing in concentration over time. FK506 content within the tissues was determined using mass spectrometry. (Mean±standard deviation, n=4).
Thirty adult female Sprague-Dawley rats were randomized into five groups (n=6). The experimental group included rats treated with fibrin gel loaded with FK506 by incorporating 10 microliters solubilized FK506 in acetonitrile (2 milligrams per milliliter), 200 micrograms solid FK506 particulates, or 5 milligrams of FK506 containing microspheres into the thrombin solution before it was mixed with fibrinogen to form a gel.
During the procedure, the sciatic nerve was exposed and the main branches were dissected. The tibial (TIB) nerve was transected 5 millimeters distal to its bifurcation from the common peroneal (CP) nerve and sural nerves with fine microsurgical scissors. The proximal TIB nerve stump was cross-sutured to the distal stump of a cut CP nerve. In the groups receiving the fibrin gel based drug delivery system, the nerve suture site was surrounded by two 40 microliters of the fibrin gels (containing applicable components for each group) formed by pipetting the fluid fibrin mixture onto a Parafilm sheet as semi-rectangular drops (˜5×5 millimeters) and placing the drops above and below the repair site. By gently opposing the drops, the delivery system was secured around the nerve. Three weeks after repair, the number of neurons that regenerated their axons were determined using retrograde labeling 7 millimeter distal to the repair site. Nerve samples at the location of retrograde labeling were collected for histomorphometric analysis. Using mass spectrometry, FK506 tissue concentrations were analyzed at the site of the injury, in sciatic nerve, dorsal root ganglia (DRGs), spinal cord, brain, heart, liver, kidney, and plasma at 7, 14, and 28 days post repair.

[1] = first week of drug release in vivo (7 days)

C=CC[C@@H]1/C=C(\C)C[C@H](C)C[C@H](OC)[C@H]2O[C@@](O)(C(=O)C(=O)N3CCCC[C@H]3C(=O)O[C@H](/C(C)=C/[C@@H]3CC[C@@H](O)[C@H](OC)C3)[C@H](C)[C@@H](O)CC1=O)[C@H](C)C[C@@H]2OC [FK506]
FK506 levels in sciatic nerve, gluteal muscles, spinal cord, kidney (at 14 days): barely detectable levels
FK506 within the DRGs (L4, L5) (at 14 days): accumulation
FK506 within the DRGs (L4, L5) (at 28 days): undetectable
FK506 levels in sciatic nerve, gluteal muscles, spinal cord, kidney (by 28 days): undetectable levels
FK506 in contralateral sciatic nerve, contralateral gluteal muscles, contralateral L4-L5 DRGs (entire period of the treatment): did not contain any FK506
FK506 in plasma, brain, liver, or heart (entire study period): not detectable
FK506 in entire spinal cord [1]: highest level
FK506 in gluteal muscles surrounding the nerve [1]: detected
FK506 in proximal injured sciatic nerve [1]: detected
